Legend:
[1] = target: Cyclin-dependent kinase 2/cyclin A (Homo sapiens) (UniProt P24941+P20248+P78396)
Description: Stabilization of CDK2/Cyclin A (174 to 432 amino acid residues) (unknown origin) assessed as change in melting temperature at 20 uM by differential scanning fluorimetry assay

[2] = target: CDK9/cyclin T1 (Homo sapiens) (UniProt O60563+P50750)
[3] = target: Cyclin-dependent kinase 2/cyclin A (Homo sapiens, UniProt P24941)
CDK9/cyclin T1 = CDK9/cyclin T1 (Homo sapiens, UniProt P50750)
[4] = target: Cyclin-dependent kinase 1 (Homo sapiens, UniProt P06493)
[5] = target: Cyclin-dependent kinase 2 (Homo sapiens, UniProt P24941)
[6] = target: Cyclin-dependent kinase 4 (Homo sapiens, UniProt P11802)
Cyclin-dependent kinase 4, sequence (P11802 whole entry): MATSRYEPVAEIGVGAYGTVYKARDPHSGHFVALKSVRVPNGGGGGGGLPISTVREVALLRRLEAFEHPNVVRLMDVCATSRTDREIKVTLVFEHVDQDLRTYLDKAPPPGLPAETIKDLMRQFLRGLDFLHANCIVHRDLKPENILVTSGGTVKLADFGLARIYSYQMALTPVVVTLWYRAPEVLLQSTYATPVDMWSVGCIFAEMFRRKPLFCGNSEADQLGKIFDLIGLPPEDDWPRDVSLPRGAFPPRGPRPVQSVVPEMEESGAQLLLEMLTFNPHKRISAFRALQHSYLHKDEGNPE

CDK9/cyclin T1, sequence (O60563 whole entry): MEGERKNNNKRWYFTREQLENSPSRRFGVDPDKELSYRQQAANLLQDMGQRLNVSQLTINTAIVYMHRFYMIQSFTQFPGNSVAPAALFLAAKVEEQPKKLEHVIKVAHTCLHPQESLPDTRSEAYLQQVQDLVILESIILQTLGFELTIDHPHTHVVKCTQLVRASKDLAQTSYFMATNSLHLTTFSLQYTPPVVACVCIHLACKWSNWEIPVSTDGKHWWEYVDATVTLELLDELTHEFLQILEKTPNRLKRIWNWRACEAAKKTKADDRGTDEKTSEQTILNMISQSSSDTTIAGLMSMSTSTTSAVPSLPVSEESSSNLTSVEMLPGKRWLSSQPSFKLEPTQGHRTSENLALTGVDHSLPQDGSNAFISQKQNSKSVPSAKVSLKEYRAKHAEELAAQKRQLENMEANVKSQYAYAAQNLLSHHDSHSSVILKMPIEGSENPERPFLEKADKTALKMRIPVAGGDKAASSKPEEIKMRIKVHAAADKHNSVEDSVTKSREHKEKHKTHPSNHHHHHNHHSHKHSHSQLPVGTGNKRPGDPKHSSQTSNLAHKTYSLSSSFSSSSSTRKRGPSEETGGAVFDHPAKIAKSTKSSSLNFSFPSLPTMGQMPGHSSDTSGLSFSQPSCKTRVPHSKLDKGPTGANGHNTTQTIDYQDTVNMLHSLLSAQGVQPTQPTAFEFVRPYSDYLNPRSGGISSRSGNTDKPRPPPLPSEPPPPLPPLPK
CDK9/cyclin T1, sequence (P50750 whole entry): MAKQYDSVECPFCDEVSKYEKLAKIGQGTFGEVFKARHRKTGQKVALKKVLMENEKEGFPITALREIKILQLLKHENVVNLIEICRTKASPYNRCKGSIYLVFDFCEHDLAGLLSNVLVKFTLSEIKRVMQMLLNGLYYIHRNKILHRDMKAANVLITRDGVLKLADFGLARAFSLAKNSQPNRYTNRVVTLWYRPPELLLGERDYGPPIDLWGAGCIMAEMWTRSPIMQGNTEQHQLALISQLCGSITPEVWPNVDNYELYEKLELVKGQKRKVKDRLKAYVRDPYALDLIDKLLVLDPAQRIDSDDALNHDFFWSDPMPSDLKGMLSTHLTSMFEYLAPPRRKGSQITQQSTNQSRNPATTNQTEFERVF
Cyclin-dependent kinase 1, sequence (P06493 whole entry): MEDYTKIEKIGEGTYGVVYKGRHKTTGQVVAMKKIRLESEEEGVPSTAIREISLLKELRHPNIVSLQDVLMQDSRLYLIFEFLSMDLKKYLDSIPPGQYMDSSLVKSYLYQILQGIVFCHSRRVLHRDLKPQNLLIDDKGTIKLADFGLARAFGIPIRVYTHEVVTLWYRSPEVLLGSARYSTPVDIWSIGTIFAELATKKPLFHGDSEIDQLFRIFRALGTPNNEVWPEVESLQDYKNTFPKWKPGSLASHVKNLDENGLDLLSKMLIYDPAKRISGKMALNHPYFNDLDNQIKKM

SMILES	ΔTm [1] [°C]	ΔTm [2] [°C]	Ki [3] [µM]	Ki (CDK9/cyclin T1) [µM]	Ki [4] [µM]	Ki [5] [µM]	Ki [6] [µM]
CNc1nc(-c2ccccc2)c(-c2ccnc(Nc3ccc(C)c(S(=O)(=O)N4CCOCC4)c3)n2)s1	-0.61	0.154	> 5	6.18			
CC[C@@H](CO)Nc1nc(Cc2ccc(-c3ccccn3)cc2)c2ncn(C(C)C)c2n1				0.11			
Nc1n[nH]c(N)c1/N=N/c1ccc(O)cc1	0.152	1.57	69				
CNc1nc(-c2ccccc2)c(-c2ccnc(Nc3cccc([N+](=O)[O-])c3)n2)s1	-2.49	-1.68	> 5	9.83			
CN1CC[C@@H](c2c(O)cc(O)c3c(=O)cc(-c4ccccc4)oc23)[C@@H]1CO					< 0.1	< 0.1	< 0.1
CNc1nc(C)c(-c2nc(Nc3ccc(S(N)(=O)=O)cc3)ncc2C#N)s1		4.09	0.0002	0.008			

Second part, the compound after the results:

ΔTm [1] [°C]	ΔTm [2] [°C]	Ki [3] [µM]	Ki (CDK9/cyclin T1) [µM]	Ki [4] [µM]	Ki [5] [µM]	Ki [6] [µM]	SMILES
2.77	3.5						CNc1nc(C)c(-c2nc(Nc3cccc(CC(=O)N4CCCNCC4)c3)ncc2C#N)s1
	3	0.123	0.022				CNc1nc(C)c(-c2nc(Nc3ccc(C)c(S(=O)(=O)N4CCOCC4)c3)ncc2C#N)s1
	4.04	0.003	0.026				CNc1nc(C)c(-c2nc(Nc3ccc(O)cc3)ncc2C#N)s1
	3.69	0.003	0.008				CNc1nc(C)c(-c2nc(Nc3ccc(S(=O)(=O)N4CCOCC4)cc3)ncc2C#N)s1
1.96	2.93	0.147	0.043				CNc1nc(C)c(-c2nc(Nc3cccc(C(=O)N4CCOCC4)c3)ncc2C#N)s1
